PubChem BioAssay (NCI)
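How tested: cells in 96-well plates exposed to compound for 48 hours at five concentrations. TGI marks complete inhibition of growth.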

Key:
Experiment in all cases: NCI anticancer screen, dose series, 48 h
BT-549 breast = system: BT-549 breast
UACC-257 melanoma = system: UACC-257 melanoma
HCC-2998 colon = system: HCC-2998 colon
OVCAR-8 ovarian = system: OVCAR-8 ovarian
SK-OV-3 ovarian = system: SK-OV-3 ovarian
MALME-3M melanoma = system: MALME-3M melanoma
SK-MEL-28 melanoma = system: SK-MEL-28 melanoma
DU-145 prostate = system: DU-145 prostate
A549 NSCLC = system: A549 NSCLC
UACC-62 melanoma = system: UACC-62 melanoma
SNB-19 CNS = system: SNB-19 CNS
NCI-H522 lung = system: NCI-H522 lung
HCT-116 colon = system: HCT-116 colon
HT29 colon = system: HT29 colon
HOP-92 NSCLC = system: HOP-92 NSCLC
SF-295 CNS = system: SF-295 CNS
U251 CNS = system: U251 CNS
HS 578T breast = system: HS 578T breast
CCRF-CEM leukemia = system: CCRF-CEM leukemia
SNB-75 CNS = system: SNB-75 CNS
OVCAR-3 ovarian = system: OVCAR-3 ovarian
NCI-H23 lung = system: NCI-H23 lung
PC-3 prostate = system: PC-3 prostate
UO-31 renal = system: UO-31 renal
SW-620 colon = system: SW-620 colon
OVCAR-5 ovarian = system: OVCAR-5 ovarian
IGROV1 ovarian = system: IGROV1 ovarian
SR leukemia = system: SR leukemia
M14 melanoma = system: M14 melanoma
ACHN renal = system: ACHN renal
SN12C renal = system: SN12C renal
EKVX NSCLC = system: EKVX NSCLC
SF-268 CNS = system: SF-268 CNS
RPMI-8226 leukemia = system: RPMI-8226 leukemia
NCI-H460 lung = system: NCI-H460 lung
SF-539 CNS = system: SF-539 CNS
MDA-MB-435 = system: MDA-MB-435
NCI-H226 lung = system: NCI-H226 lung
MDA-MB-231 breast = system: MDA-MB-231 breast
MCF7 breast = system: MCF7 breast
SK-MEL-5 melanoma = system: SK-MEL-5 melanoma
A498 renal = system: A498 renal
T-47D breast = system: T-47D breast
HOP-62 NSCLC = system: HOP-62 NSCLC
LOX IMVI melanoma = system: LOX IMVI melanoma
TK-10 renal = system: TK-10 renal
COLO 205 colon = system: COLO 205 colon
SK-MEL-2 melanoma = system: SK-MEL-2 melanoma
HCT-15 colon = system: HCT-15 colon
MOLT-4 leukemia = system: MOLT-4 leukemia
OVCAR-4 ovarian = system: OVCAR-4 ovarian
KM12 colon = system: KM12 colon
CAKI-1 renal = system: CAKI-1 renal
NCI/ADR-RES ovarian = system: NCI/ADR-RES ovarian
MDA-N = system: MDA-N
HL-60(TB) leukemia = system: HL-60(TB) leukemia
786-0 renal = system: 786-0 renal
RXF 393 renal = system: RXF 393 renal
K-562 leukemia = system: K-562 leukemia

CCOc1cc(C=Nc2ccc(Oc3ccc(Cl)cc3)c(Cl)c2)ccc1O
TGI (BT-549 breast): 52 µM | TGI (UACC-257 melanoma): 80.8 µM | TGI (HCC-2998 colon): 43.4 µM | TGI (OVCAR-8 ovarian): 65.4 µM | TGI (SK-OV-3 ovarian): 58.3 µM | TGI (MALME-3M melanoma): 52.6 µM | TGI (SK-MEL-28 melanoma): 63.1 µM | TGI (DU-145 prostate): > 100 µM | TGI (A549 NSCLC): > 100 µM | TGI (UACC-62 melanoma): 50.9 µM | TGI (SNB-19 CNS): 62.1 µM | TGI (NCI-H522 lung): 31.9 µM | TGI (HCT-116 colon): 37.8 µM | TGI (HT29 colon): 46.6 µM | TGI (HOP-92 NSCLC): 39.6 µM | TGI (SF-295 CNS): 38.8 µM | TGI (U251 CNS): 44.4 µM | TGI (HS 578T breast): 45.4 µM | TGI (CCRF-CEM leukemia): 50.8 µM | TGI (SNB-75 CNS): 45.7 µM | TGI (OVCAR-3 ovarian): 85.7 µM | TGI (NCI-H23 lung): 45.6 µM | TGI (PC-3 prostate): 88.7 µM | TGI (UO-31 renal): 30.3 µM | TGI (SW-620 colon): > 100 µM | TGI (OVCAR-5 ovarian): 79.7 µM | TGI (IGROV1 ovarian): 60.6 µM | TGI (SR leukemia): 57 µM | TGI (M14 melanoma): 77.6 µM | TGI (ACHN renal): > 100 µM | TGI (SN12C renal): 38.8 µM | TGI (EKVX NSCLC): 41.3 µM | TGI (SF-268 CNS): 32 µM | TGI (RPMI-8226 leukemia): 82.8 µM | TGI (NCI-H460 lung): 43.2 µM | TGI (SF-539 CNS): 54.7 µM | TGI (MDA-MB-435): > 100 µM | TGI (NCI-H226 lung): 90.2 µM | TGI (MDA-MB-231 breast): 42.1 µM | TGI (MCF7 breast): > 100 µM | TGI (SK-MEL-5 melanoma): 52.9 µM | TGI (A498 renal): 36.6 µM | TGI (T-47D breast): > 100 µM | TGI (HOP-62 NSCLC): 45.6 µM | TGI (LOX IMVI melanoma): 39.9 µM | TGI (TK-10 renal): > 100 µM | TGI (COLO 205 colon): 44.6 µM | TGI (SK-MEL-2 melanoma): 56.4 µM | TGI (HCT-15 colon): 47.3 µM | TGI (MOLT-4 leukemia): 67.3 µM | TGI (OVCAR-4 ovarian): 80.4 µM | TGI (KM12 colon): 39 µM | TGI (CAKI-1 renal): 59.4 µM | TGI (NCI/ADR-RES ovarian): 52.9 µM | TGI (MDA-N): 61.7 µM | TGI (HL-60(TB) leukemia): 57.4 µM | TGI (786-0 renal): 34 µM

C[N+](C)(C)c1nc(N)nc2c1ncn2C1OC(CO)C(O)C1O (stereo unspecified)
TGI (BT-549 breast): > 100 µM | TGI (UACC-257 melanoma): > 100 µM | TGI (HCC-2998 colon): > 100 µM | TGI (OVCAR-8 ovarian): > 100 µM | TGI (SK-OV-3 ovarian): > 100 µM | TGI (MALME-3M melanoma): > 100 µM | TGI (SK-MEL-28 melanoma): > 100 µM | TGI (DU-145 prostate): > 100 µM | TGI (A549 NSCLC): > 100 µM | TGI (UACC-62 melanoma): > 100 µM | TGI (SNB-19 CNS): > 100 µM | TGI (NCI-H522 lung): > 100 µM | TGI (HCT-116 colon): > 100 µM | TGI (HT29 colon): > 100 µM | TGI (HOP-92 NSCLC): > 100 µM | TGI (U251 CNS): > 100 µM | TGI (HS 578T breast): > 100 µM | TGI (CCRF-CEM leukemia): > 100 µM | TGI (SNB-75 CNS): > 100 µM | TGI (OVCAR-3 ovarian): > 100 µM | TGI (NCI-H23 lung): > 100 µM | TGI (PC-3 prostate): > 100 µM | TGI (UO-31 renal): > 100 µM | TGI (SW-620 colon): > 100 µM | TGI (OVCAR-5 ovarian): > 100 µM | TGI (IGROV1 ovarian): > 100 µM | TGI (SR leukemia): > 100 µM | TGI (M14 melanoma): > 100 µM | TGI (ACHN renal): > 100 µM | TGI (SN12C renal): > 100 µM | TGI (EKVX NSCLC): > 100 µM | TGI (SF-268 CNS): > 100 µM | TGI (RPMI-8226 leukemia): > 100 µM | TGI (NCI-H460 lung): > 100 µM | TGI (SF-539 CNS): > 100 µM | TGI (RXF 393 renal): > 100 µM | TGI (MDA-MB-435): > 100 µM | TGI (MDA-MB-231 breast): > 100 µM | TGI (MCF7 breast): > 100 µM | TGI (SK-MEL-5 melanoma): > 100 µM | TGI (A498 renal): > 100 µM | TGI (T-47D breast): > 100 µM | TGI (HOP-62 NSCLC): > 100 µM | TGI (LOX IMVI melanoma): > 100 µM | TGI (TK-10 renal): > 100 µM | TGI (COLO 205 colon): > 100 µM | TGI (SK-MEL-2 melanoma): > 100 µM | TGI (K-562 leukemia): > 100 µM | TGI (HCT-15 colon): > 100 µM | TGI (MOLT-4 leukemia): > 100 µM | TGI (OVCAR-4 ovarian): > 100 µM | TGI (KM12 colon): > 100 µM | TGI (CAKI-1 renal): > 100 µM | TGI (NCI/ADR-RES ovarian): > 100 µM | TGI (MDA-N): > 100 µM | TGI (786-0 renal): > 100 µM

Cc1cc(C(C)(C)C)c(OCCCN2CCOCC2)c(C(C)(C)C)c1
TGI (BT-549 breast): 31.9 µM | TGI (UACC-257 melanoma): 32 µM | TGI (HCC-2998 colon): 30.3 µM | TGI (OVCAR-8 ovarian): 35.4 µM | TGI (SK-OV-3 ovarian): 35.6 µM | TGI (MALME-3M melanoma): 35 µM | TGI (SK-MEL-28 melanoma): 30.5 µM | TGI (DU-145 prostate): 34.1 µM | TGI (A549 NSCLC): 32.5 µM | TGI (UACC-62 melanoma): 29.8 µM | TGI (SNB-19 CNS): 32.1 µM | TGI (NCI-H522 lung): 33.2 µM | TGI (HCT-116 colon): 31.4 µM | TGI (HT29 colon): 32.7 µM | TGI (HOP-92 NSCLC): 35 µM | TGI (SF-295 CNS): 33.1 µM | TGI (U251 CNS): 33.2 µM | TGI (HS 578T breast): 38.6 µM | TGI (CCRF-CEM leukemia): 33.2 µM | TGI (SNB-75 CNS): 32.6 µM | TGI (OVCAR-3 ovarian): 36.1 µM | TGI (NCI-H23 lung): 32 µM | TGI (PC-3 prostate): 29.9 µM | TGI (UO-31 renal): 32.7 µM | TGI (SW-620 colon): 32.3 µM | TGI (OVCAR-5 ovarian): 33 µM | TGI (IGROV1 ovarian): 34.2 µM | TGI (SR leukemia): 47 µM | TGI (M14 melanoma): 31.7 µM | TGI (ACHN renal): 31.2 µM | TGI (SN12C renal): 33 µM | TGI (EKVX NSCLC): 32.5 µM | TGI (SF-268 CNS): 33.5 µM | TGI (RPMI-8226 leukemia): 34.8 µM | TGI (NCI-H460 lung): > 100 µM | TGI (SF-539 CNS): 33.7 µM | TGI (RXF 393 renal): 31.9 µM | TGI (MDA-MB-435): 38.2 µM | TGI (MDA-MB-231 breast): 32.2 µM | TGI (MCF7 breast): 33.6 µM | TGI (SK-MEL-5 melanoma): 30 µM | TGI (A498 renal): 33.4 µM | TGI (T-47D breast): 34.1 µM | TGI (HOP-62 NSCLC): 38.6 µM | TGI (LOX IMVI melanoma): 36.5 µM | TGI (TK-10 renal): 36.2 µM | TGI (COLO 205 colon): 30.6 µM | TGI (SK-MEL-2 melanoma): 31.3 µM | TGI (K-562 leukemia): 33.3 µM | TGI (HCT-15 colon): 32.7 µM | TGI (MOLT-4 leukemia): 33.7 µM | TGI (OVCAR-4 ovarian): 31.5 µM | TGI (KM12 colon): 36 µM | TGI (CAKI-1 renal): 34.5 µM | TGI (NCI/ADR-RES ovarian): 32 µM | TGI (MDA-N): 34 µM | TGI (HL-60(TB) leukemia): 29 µM | TGI (786-0 renal): 31.9 µM
